Data from US9828350B2, “5,6-dihydro-2H-[1,4]oxazin-3-yl-amine derivatives useful as inhibitors of beta-secretase (BACE)” (Janssen Pharmaceutica NV, priority 2010, dated 2017).

Assays:
Abeta total = assay: Cellular αLisa assay in SKNBE2 cells, Abeta total; assay type: cell-based, human; settings: incubated for 18 hours; for IC50: Homo sapiens, SKNBE2, 18 h, read-out: Cellular αLisa assay in SKNBE2 cells Abetatotal pIC50 (converted)
Experimental: (§1) Cellular αLisa Assay in SKNBE2 Cells
(§2) In two αLisa assays the levels of Abeta total and Abeta 1-42 produced and secreted into the medium of human neuroblastoma SKNBE2 cells are quantified. The assay is based on the human neuroblastoma SKNBE2 expressing the wild type Amyloid Precursor Protein (hAPP695). The compounds are diluted and added to these cells, incubated for 18 hours and then measurements of Abeta 1-42 and Abeta total are taken. Abeta total and Abeta 1-42 are measured by sandwich αLisa. αLisa is a sandwich assay using biotinylated antibody AbN/25 attached to streptavidin coated beads and antibody Ab4G8 or cAb42/26 conjugated acceptor beads for the detection of Abeta total and Abeta 1-42 respectively. In the presence of Abeta total or Abeta 1-42, the beads come into close proximity. The excitation of the donor beads provokes the release of singlet oxygen molecules that trigger a cascade of energy transfer in the acceptor beads, resulting in light emission. Light emission is measured after 1 hour incubation (excitation at […] and emission at 615 nm).

Abeta 1-42 = assay: Cellular αLisa assay in SKNBE2 cells, Abeta 1-42; assay type: cell-based, human; settings: incubated for 18 hours; for IC50: Homo sapiens, SKNBE2, 18 h, read-out: Cellular αLisa assay in SKNBE2 cells Abeta 42 pIC50 (converted)
Experimental: as §1, §2

[1] = target: recombinant BACE1 protein (Homo sapiens, UniProt P56817); assay: Biochemical FRET based assay; settings: recombinant BACE1 1 μg/ml, 120 minutes at room temperature, pH 5.0; for IC50: read-out: Biochemical FRET based assay pIC50 (converted)
From the text: Biochemical FRET Based Assay
This assay is a Fluorescence Resonance Energy Transfer Assay (FRET) based assay. The substrate for this assay is an APP derived 13 amino acids peptide that contains the ‘Swedish’ Lys-Met/Asn-Leu mutation of the amyloid precursor protein (APP) beta-secretase cleavage site. This substrate also contains two fluorophores: (7-methoxycoumarin-4-yl) acetic acid (Mca) is a fluorescent donor with excitation wavelength at 320 nm and emission at 405 nm and 2,4-Dinitrophenyl (Dnp) is a proprietary quencher acceptor. […] Upon cleavage by BACE1, the fluorophore Mca is separated from the quenching group Dnp, restoring the full fluorescence yield of the donor. The increase in fluorescence is linearly related to the rate of proteolysis.
Briefly in a 384-well format recombinant BACE1 protein in a final concentration of 1 μg/ml is incubated for 120 minutes at room temperature with […] substrate in incubation buffer (40 mM Citrate buffer pH 5.0, 0.04% PEG, 4% DMSO) in the absence or presence of compound. Next the amount of proteolysis is directly measured by fluorescence measurement at T=0 and T=120 (excitation at 320 nm and emission at 405 nm). Results are expressed in RFU (Relative Fluorescence Units), as difference between T120 and TO.

recombinant BACE1 protein, sequence (P56817 46-501): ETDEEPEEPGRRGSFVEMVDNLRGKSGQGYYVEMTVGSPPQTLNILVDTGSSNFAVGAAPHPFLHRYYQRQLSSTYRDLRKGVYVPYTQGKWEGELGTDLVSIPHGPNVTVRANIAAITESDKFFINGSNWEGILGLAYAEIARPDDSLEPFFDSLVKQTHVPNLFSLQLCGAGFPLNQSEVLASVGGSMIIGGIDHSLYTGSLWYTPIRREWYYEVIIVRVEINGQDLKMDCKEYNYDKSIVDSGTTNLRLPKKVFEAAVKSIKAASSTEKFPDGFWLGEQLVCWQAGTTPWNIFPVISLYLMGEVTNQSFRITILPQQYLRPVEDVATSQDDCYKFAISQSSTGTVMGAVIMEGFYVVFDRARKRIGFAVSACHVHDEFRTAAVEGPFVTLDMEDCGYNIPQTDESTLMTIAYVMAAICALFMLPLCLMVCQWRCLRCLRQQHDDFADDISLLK

Row | SMILES | IC50 (Abeta total) [nM] | IC50 (Abeta 1-42) [nM] | IC50 [1] [nM] | Cellular αLisa assay in SKNBE2 cells Abetatotal pIC50 (Abeta total) | Cellular αLisa assay in SKNBE2 cells Abeta 42 pIC50 (Abeta 1-42) | Biochemical FRET based assay pIC50 [1]
1 | C[C@]1(c2cc(NC(=O)c3ccncn3)ccc2F)N=C(N)CO[C@@]1(F)C(F)(F)F [Compound 182] | 204 | 209 | 550 | – | – | –
2 | C[C@@]1(c2cc(NC(=O)c3ccc(Cl)cc3)ccc2F)COCC(N)=N1 [Compound 41] | – | – | – | 7.33 | 7.31 | 6.33
3 | COc1cncc(-c2cccc(C3(C)N=C(N)COC3C(F)(F)F)c2)c1 (stereo not drawn) [Compound 108] | 120 | 120 | 1290 | – | – | –
4 | CC1(c2cc(-c3cncnc3)ccc2F)N=C(N)COC1C(F)(F)F (single isomer, unassigned) [Compound 238] | – | – | 832 | 6.66 | 6.65 | –
5 | Cc1cnc(C(=O)Nc2cccc(C3(C)COCC(N)=N3)c2)cn1 (racemic) [Compound 7] | – | – | – | 6.53 | 6.49 | 5.39
6 | CC1(c2cccc(-c3cncnc3)c2)N=C(N)COC1(F)C(F)(F)F (single isomer, unassigned) [Compound 116] | – | – | > 30200 | 5.06 | 5.18 | –
7 | C[C@@]1(c2cc(-c3cc(Cl)cc(Cl)c3)c(F)cc2F)COCC(N)=N1 [Compound 48] | – | – | – | 6.22 | 6.19 | 5.73
8 | Cc1ccc(C(=O)Nc2cccc(C3(C)N=C(N)COC3(F)C(F)(F)F)c2)nc1 (single isomer, unassigned) [Compound 192] | – | – | > 30200 | <5 | <5 | –
9 | CC1(c2cccc(NC(=O)c3cnc(C(F)(F)F)cn3)c2)COCC(N)=N1 (stereo not drawn) [Compound 146] | – | – | – | 7.03 | 7.07 | 6.26
10 | CC1(c2cc(-c3cncnc3)ccc2F)N=C(N)COC1F (single isomer, unassigned) [Compound 127] | – | – | > 30200 | <5 | <5 | –
11 | NC1=N[C@@](c2cc(NC(=O)c3ncc(Cl)cc3F)ccc2F)(C2CC2)[C@H](F)OC1 [Compound 220] | 347 | 355 | 468 | – | – | –
12 | NC1=N[C@@](c2cccc(NC(=O)c3ncc(Cl)cc3Cl)c2)(C2CC2)[C@@H](F)OC1 [Compound 256] | 26.3 | 28.8 | 42.7 | – | – | –
13 | C[C@]1(c2cccc(NC(=O)c3ccc(C#N)cn3)c2)N=C(N)CO[C@@]1(F)C(F)(F)F [Compound 241] | 120 | 126 | 324 | – | – | –
14 | COc1cncc(-c2cccc(C3(C)N=C(N)COC3(F)C(F)(F)F)c2)c1 (single isomer, unassigned) [Compound 119] | – | – | 11200 | 5.67 | 5.62 | –
15 | CC1(c2cc(NC(=O)c3ncc(Cl)cn3)ccc2F)COCC(N)=N1 (stereo not drawn) [Compound 144] | – | – | – | 7.38 | 7.27 | 7.11
16 | Cc1ccc(C(=O)Nc2cccc(C3(C)N=C(N)COC3(F)C(F)(F)F)c2)nc1 (single isomer, unassigned) [Compound 193] | – | – | 74.1 | 7.23 | 7.19 | –
17 | COc1cncc(-c2ccc(F)c(C3(C)COCC(N)=N3)c2)c1 (single isomer, unassigned) [Compound 56] | – | – | – | 7.1 | 7.02 | 5.69
18 | COc1cncc(-c2cccc(C3(C)N=C(N)COC3C(F)(F)F)c2)c1 (single isomer, unassigned) [Compound 101] | – | – | 178 | 7.7 | 7.71 | –
19 | Cc1ccc(C(=O)Nc2cccc(C3(C)N=C(N)COC3(F)C(F)(F)F)c2)nc1 (single isomer, unassigned) [Compound 191] | – | – | 18600 | 5.46 | 5.04 | –
20 | C[C@@]1(c2cccc(-c3cccc(C#N)c3)c2)COCC(N)=N1 [Compound 51] | – | – | – | 6.59 | 6.61 | 5.41
21 | CC1(c2cc(-c3cncnc3)ccc2F)COCC(N)=N1 (racemic) [Compound 58] | – | – | – | 6.68 | 6.7 | 5.11
22 | COc1cncc(-c2cccc(C3(C)COC4(CC4)C(N)=N3)c2)c1 (racemic) [Compound 16, rac-6-[3-(5-methoxypyridin-3-yl)phenyl]-6-methyl-4-oxa-7-azaspiro[2.5]oct-7-en-8-amine] | 355 | 389 | 2190 | – | – | –
23 | COc1cncc(-c2cccc([C@@]3(C)CO[C@@H](C)C(N)=N3)c2)c1 (racemic) [Compound 19, cis-rac-5-[3-(5-methoxypyridin-3-yl)phenyl]-2,5-dimethyl-5,6-dihydro-2H-1,4-oxazin-3-amine] | – | – | – | 6.352 | 6.29 | 5.38

Now from value to compound:

Row | IC50 (Abeta total) [nM] | IC50 (Abeta 1-42) [nM] | IC50 [1] [nM] | Cellular αLisa assay in SKNBE2 cells Abetatotal pIC50 (Abeta total) | Cellular αLisa assay in SKNBE2 cells Abeta 42 pIC50 (Abeta 1-42) | Biochemical FRET based assay pIC50 [1] | SMILES
24 | 10.5 | 10 | 30.9 | – | – | – | NC1=N[C@@](c2cccc(NC(=O)c3cnc(OCC(F)(F)F)cn3)c2)(C2CC2)[C@H](C(F)(F)F)OC1 [Compound 289]
25 | 17.8 | 18.6 | 97.7 | – | – | – | N#Cc1cnc(C(=O)Nc2cccc([C@@]3(C4CC4)N=C(N)CO[C@@H]3C(F)(F)F)c2)c(Cl)c1 [Compound 290]
26 | 339 | 363 | 589 | – | – | – | COc1ccc(C(=O)Nc2ccc(F)c([C@@]3(C)N=C(N)CO[C@]3(F)C(F)(F)F)c2)nc1 [Compound 304]
27 | 3160 | 3240 | 8710 | – | – | – | C[C@@]1(c2ccnc(-c3cc(Cl)cc(Cl)c3)c2)N=C(N)CO[C@H]1F (single isomer, unassigned) [Compound 278, (5S*,6S*)-5-[2-(3,5-dichlorophenyl)pyridin-4-yl]-6-fluoro-5-methyl-5,6-dihydro-2H-1,4-oxazin-3-amine]
28 | 468 | 550 | 2040 | – | – | – | C[C@]1(c2cc(-c3cncc(C#N)c3)c(F)cc2F)N=C(N)CO[C@H]1C(F)(F)F [Compound 351]
29 | 57.5 | 58.9 | 158 | – | – | – | NC1=N[C@@](c2cccc(-c3cncnc3)c2)(C2CC2)[C@H](C(F)(F)F)OC1 [Compound 269]
30 | 41.7 | 41.7 | 174 | – | – | – | NC1=N[C@@](c2cccc(NC(=O)c3ncc(Cl)cc3Cl)c2)(C2CC2)[C@H](F)OC1 [Compound 276]
31 | 72.4 | 74.1 | 219 | – | – | – | N#Cc1cnc(C(=O)Nc2cccc([C@@]3(C4CC4)N=C(N)CO[C@H]3F)c2)c(Cl)c1 [Compound 309]
32 | 15.8 | 14.8 | 100 | – | – | – | CCC1(c2cc(NC(=O)c3cnc(OC)cn3)ccc2F)N=C(N)COC1C(F)(F)F (stereo not drawn) [Compound 285]
33 | – | – | 1550 | 5.93 | 5.91 | – | CCC1(c2cc(NC(=O)c3cnc(OC)cn3)ccc2F)N=C(N)COC1(F)C(F)(F)F (stereo not drawn) [Compound 300]
34 | 112 | 107 | 219 | – | – | – | C[C@]1(c2ccnc(-c3cc(Cl)cc(Cl)c3)c2)N=C(N)CO[C@@H]1F (single isomer, unassigned) [Compound 277, (5R*,6R*)-5-[2-(3,5-dichlorophenyl)pyridin-4-yl]-6-fluoro-5-methyl-5,6-dihydro-2H-1,4-oxazin-3-amine]
35 | 977 | 1020 | 891 | – | – | – | NC1=N[C@@](c2cccc(-c3cncnc3)c2)(C2CC2)[C@@H](F)OC1 [Compound 257]
